The values that follow come from the Bradley open melting point set (2014).

Each structure is given as a SMILES string. Several values for one entry are separate records, joined by “and”; a condition that tells them apart may be missing. Equal values may be shown once.

In the case of `C/C=C\C(C)C` [4-methyl-cis-2-pentene], the melting point (in general, the temperature, or range, at which the solid turns liquid) was -134 °C. With `Cc1nc(-c2ccc(-c3nc(C)c(-c4ccccc4)o3)cc2)oc1-c1ccccc1` [1,4-bis(4-methyl-5-phenyloxazol-2-yl)benzene], the melting point was 234 °C. As for `Cc1c(C)c(C)c(C)c(C)c1C` [hexamethylbenzene], the melting point amounted to 164 °C. Consider `CCCOC(C)=O` [Propyl Acetate], for which the melting point is -93 °C.

On to `N#Cc1ccccc1C=O` [o-cyanobenzaldehyde], for which the melting point turned out to be 108 °C. With `Cc1cccc[n+]1[O-]` [2-picoline n-oxide], the melting point was determined as 48 °C. In turn, `ClC(Cl)(Cl)C(Cl)(Cl)Cl` [hexachloroethane] showed a melting point of 192 °C.

Compound `CN(C)CCC=C1c2ccccc2COc2ccccc21` [Doxepin] returned a melting point of 185 °C.

`c1cc(ccc1NC(=O)/C=CC(=O)O)F` [N-(4-fluorophenyl)maleamic acid]: the melting point worked out at 208 °C. For `COC(=O)/C=C(/C(=O)OC)N(Nc1ccccc1N=Nc1ccccc1)c1ccccc1` the value was 154 °C. As for `CCOC(=O)c1sc2sc(C(=O)OCC)c(C)c2c1C` [diethyl 3,4-dimethylthieno[2,3-b]thiophene-2,5-dicarboxylate], the melting point amounted to 140 °C.

The compound `Clc1ccc2c(Cl)ccnc2c1` [4,7-dichloroquinoline] returned a melting point of 85 °C. The same measure for `O=C(c1ccccc1)C(O)c1ccccc1` (stereo not drawn) [benzoin] [listing 1 of 2 here]: 135 °C; for `C/C=C/C=O` [crotonaldehyde]: -76 °C. `O=C1Cc2ccccc2CO1` [1,4-Dihydro-3H-isochromen-3-on] displayed a melting point of 83 °C. `C=CCC1(c2ccccc2)C(=O)NC(=O)NC1=O` [phenallymal]: the melting point came to 156 °C. For `O=C(O)c1ccc([N+](=O)[O-])cc1Cl` [2-chloro-4-nitrobenzoic acid] the value was 142 °C. For `CNC(=NC#N)NCCSCc1nc[nH]c1C` [cimetidine] the value was 141 °C. The same measure for `O=C(O)c1ccc(Br)cc1` [4-Bromobenzoic acid]: 253 °C; for `NC(=O)c1ccc(Cl)cc1` [4-chlorobenzamide]: 178 °C; for `CC(C(=O)O)c1cccc(C(=O)c2ccccc2)c1` (stereo not drawn) [Ketoprofen]: 94 °C. Compound `O=C(O)/C=C/c1ccccc1Br` [trans-2-bromocinnamic acid] registered a melting point of 218 °C. The same measure for `CC(=O)OC(C)=O` [acetic anhydride]: -73 °C; for `COc1ccc2c(c1)c(CC(=O)O)c(C)n2C(=O)c1ccc(Cl)cc1` [indomethacin]: 159 °C and 160 °C; for `CC(=O)OCC1OC(C(N)=O)C(OC(C)=O)C(OC(C)=O)C1OC(C)=O` (stereo not drawn): 129 °C.

Regarding `ClC1=C(Cl)C2(Cl)C3C(Cl)C(Cl)CC3C1(Cl)C2(Cl)Cl` (stereo not drawn) [trans-gamma-chlordane], the melting point was 106 °C. The same measure for `CC(C)(C)O` [2-methyl-2-propanol]: 26 °C; for `NC(=O)/C(=N\Nc1ccc(F)cc1)c1nc2ccccc2s1`: 159 °C. Consider `Cc1nccnc1C` [2,3-dimethylpyrazine], for which the melting point is -12 °C. On to `NC(=O)c1cc(F)cc(F)c1` [3,5-difluorobenzamide], for which the melting point worked out at 156 °C. The same measure for `CC(=O)Nc1ccc(Br)cc1C` [4'-bromo-2'-methylacetanilide]: 156 °C; for `O=C(/C=C/c1ccccc1)n1ccnc1` [1-(trans-cinnamoyl)imidazole]: 130 °C. For the compound `Clc1ccc(C(c2ccc(Cl)cc2)C(Cl)(Cl)Cl)cc1` [4,4'-DDT], the melting point was 110 °C. For `O=C(c1ccccc1)C(O)c1ccccc1` (stereo not drawn) [benzoin] [listing 2 of 2 here] the value was 134 °C.

`CC(C)[C@H](N)C(=O)O` [L-Valine] showed a melting point of 308 °C.

Turning to `O=C(O)c1cccc(Br)c1` [3-Bromobenzoic acid], the melting point was 157 °C.

With `O=C(CS(=O)C(c1ccccc1)c1ccccc1)NO` (stereo not drawn) [adrafinil], the melting point worked out at 159 °C. With `CC(=O)Cl` [acetyl chloride], the melting point is -112 °C. For the compound `Nc1ncnc2c1ncn2[C@@H]1O[C@H](CO)[C@@H](O)[C@H]1O` [adenosine], the melting point amounted to 234 °C. In the case of `C1CCNC1` [pyrrolidine], the melting point was -63 °C. Regarding `CC(C)(C)C1=CC(=O)C(=O)C(C(C)(C)C)=C1` [3,5-Di-tert-butyl-1,2-benzoquinone], the melting point came out at 114 °C. In the case of `CC(CCc1oc2ccccc2c1-c1ccc(C)o1)=NO`, the melting point stood at 105 °C. For the compound `COC(=O)CCC(=O)OC` [dimethyl succinate], the melting point is 19 °C. The compound `CC(C)(C)NC(=O)[C@@H]1CC2CCCCC2CN1C[C@@H](O)[C@H](Cc1ccccc1)NC(=O)[C@H](CC(N)=O)NC(=O)c1ccc2ccccc2n1` (stereo partly drawn) [Saquinavir] yielded a melting point of 350 °C. Consider `CC(=O)c1ccc(Br)cc1` [p-bromoacetophenone], for which the melting point came out at 51 °C. In turn, `CCC1(OC(C)=O)CCC2(C)C(CCC3C4CCC(=O)C4(C)CCC32)C1` (stereo not drawn) [3-ethyl-17-oxoandrostan-3-yl acetate] displayed a melting point of 126 °C. Turning to `O=S(=O)(O)C(F)(F)F` [Trifluoromethanesulfonic acid], the melting point is -40 °C. `CC(=O)c1cnn(-c2ccccc2)c1C` [4-acetyl-5-methyl-1-phenyl-1h-pyrazole]: the melting point was 104 °C. The compound `CCCCCCCCCCCCO` [1-dodecanol] had a melting point of 26 °C.

`CC(=O)c1ccc(Cl)s1` [2-acetyl-5-chlorothiophene]: the melting point is 46 °C.

Compound `O=[N+]([O-])c1cccc(O)c1` [3-nitrophenol] had a melting point of 96 °C. For `Cc1ccc(O)c(C(=O)O)c1` [5-methylsalicylic acid] the value was 153 °C. On to `COC(=O)CC(C)=O` [methyl_acetoacetate], for which the melting point is -80 °C.

As to `O=C(O)c1cc(F)c(Cl)nc1Cl` [2,6-dichloro-5-fluoronicotinic acid], the melting point was 154 °C.

For `CC[C@H]1OC(=O)[C@H](C)[C@@H](O[C@@H]2C[C@](C)(OC)[C@H](O)[C@@H](C)O2)[C@H](C)[C@@H](O[C@@H]2O[C@H](C)C[C@H](N(C)C)[C@H]2O)[C@](C)(OC)C[C@@H](C)C(=O)[C@H](C)[C@@H](O)[C@]1(C)O` [Clarithromycin], the melting point came out at 218 °C. On to `OCc1ccc(I)cc1` [4-iodobenzyl alcohol], for which the melting point came to 73 °C. For `Oc1cc(Cl)c(-c2c(Cl)cc(Cl)cc2Cl)c(Cl)c1O` [PCB-155] the value was 113 °C. As for `CCCCCCCCC(CCCCCC)C(=O)O` (stereo not drawn) [2-n-hexyldecanoic acid], the melting point came to 10 °C. `CC(C)c1ccccc1` [cumene] yielded a melting point of -96 °C.

`CC(C)(C)OC(=O)N[C@H](Cc1ccccc1)C(=O)O` [N-boc-D-phenylalanine]: the melting point was 87 °C. In turn, `Brc1ccc(Br)cc1` [1,4-Dibromobenzene] had a melting point of 88 °C.

Turning to `O=C1OC(=O)c2c(Cl)c(Cl)c(Cl)c(Cl)c21` [4,5,6,7-Tetrachloro-2-benzofuran-1,3-dione], the melting point was found to be 256 °C. The same measure for `COC(=O)CCC(=O)OC` [Dimethyl succinate]: 19.5 °C; for `C[C@]12C=CC(=O)C=C1CC[C@H]1[C@@H]3C[C@@H](O)[C@](O)(C(=O)CO)[C@@]3(C)C[C@H](O)[C@@]12F` [Triamcinolone]: 276 °C. The same measure for `COc1ccc2cc(OC)ccc2c1` [2,6-dimethoxynaphthalene]: 153 °C; for `BrCBr` [Dibromomethane]: -52 °C. For `OCCCO` [1,3-propanediol] the value was -26 °C. In turn, `O=C(CCCc1ccccc1)c1ccccc1` [1,4-diphenyl-1-butanone] came in with a melting point of 55 °C.

Take `ClC1=C(Cl)C2(Cl)C3C(Cl)C(Cl)CC3C1(Cl)C2(Cl)Cl` (stereo not drawn) [trans-Chlordane]: the melting point stood at 106 °C. For `CCOC(=O)c1ccc(N)cc1` [ethyl p-aminobenzoate] the value was 89 °C; for `COc1cc(N)ccc1C` [3-methoxy-4-methylaniline], 58 °C. The same measure for `COc1ccc(N=C=S)c([N+](=O)[O-])c1` [4-methoxy-2-nitrophenyl isothiocyanate]: 92 °C; for `NC(=O)N1c2ccccc2C=Cc2ccccc21` [Carbamazepine]: 190 °C.

`Nc1cccc(-n2ccccc2=O)c1` [amphenidone] returned a melting point of 183 °C. `Oc1ccccc1C=NCCN=Cc1ccccc1O` [N,N'-bis(salicylidene)ethylenediamine] showed a melting point of 130 °C. For `Cc1c(Br)cccc1[N+](=O)[O-]` [2-bromo-6-nitrotoluene] the value was 40 °C; for `COc1cc(=O)oc2ccccc12` [4-methoxycoumarin], 124 °C; for `O=C(O)CCCCCCCCCCCCCCCO` [16-hydroxyhexadecanoic acid], 99 °C. As for `O=C(O)c1ccc2c(c1)OCCCO2` [3,4-dihydro-2h-1,5-benzodioxepin-7-carboxylic acid], the melting point is 148 °C.

The compound `C=CC` [1-propene] came in with a melting point of -185 °C. For `Nc1cccc(Br)c1` [m-bromoaniline] the value was 17 °C. In the case of `CCCCCCCc1ccc(C(=O)O)cc1` [4-Heptylbenzoic acid], the melting point is 69.8 °C.

`O=C1/C(=C\c2ccco2)SC(=S)N1CN1CCCCC1` had a melting point of 121 °C.

`CCCC(C)C1(CC)C(=O)NC(=O)NC1=O` (stereo not drawn) [pentobarbital] came in with a melting point of 130 °C.

Compound `O=C(O)C1=NN(c2ccccc2)C(=O)C1=CC1C(=O)N(c2ccccc2)N=C1C(=O)O` (stereo not drawn) returned a melting point of 259 °C. The same measure for `CCCCCCCCCCc1ccc(N(NC(=O)OC(C)(C)C)C(=O)OC(C)(C)C)cc1CCCCCCCCCC` [1,2-Bis(tert-butoxycarbonyl)-1-(3,4-didecylphenyl)hydrazine]: 37.5 °C. For `Cc1cc(Cl)nc(Cl)c1C#N` [2,6-dichloro-4-methylnicotinonitrile] the value was 113 °C. For `COc1ccc2c(c1)CCCC2=O` [6-methoxy-1-tetralone] the value was 79 °C.
